Data reported in publication PMC9924185, “A validated LC–MS/MS method for clinical pharmacokinetics and presumptive phase II metabolic pathways following oral administration of Andrographis paniculata extract” (Scientific Reports, 2023).
Like-named read-outs stand apart in the source and are kept apart here. Values belong to the molecule of their own block, whether it stands above or below them.

How the values were obtained:
[1] = Clinical pharmacokinetics in plasma after single oral administration of A. paniculata extract; type: in vivo, human; conditions: for Cmax / AUC(0-t) / Vd/F / Tmax / half-life: human, parent compound in plasma, single oral dose of extract (60 mg andrographolide); for Cmax: healthy subjects n = 4; for Cmax / AUC(0-t) / Vd/F: mean ± SD; for AUC(0-t) / Vd/F / Tmax / half-life: n = 4; for Tmax / half-life: median; for AUC of both conjugated metabolites compared to the respective parent compounds: plasma, single oral dose of extract
Experimental: (§1) An aliquot of 50 µL of plasma or urine was placed in a 1.5 mL of polypropylene centrifuge micro-tube. Protein was removed from the sample by adding 200 µL of methanol (containing 50.00 ng/mL of IS). The mixture was vortexed for 10 min and was then centrifuged at 12,000 rpm, 4 °C for 10 min. The supernatant was filtered through a […] PVDF membrane (Chrom Tech) and transferred into a glass insert in a vial before LC‑MS/MS analysis.
(§2) The clinical pharmacokinetic study was designed as an open-labeled, with a single oral dosing, and conducted under a fasting condition. Four healthy subjects were recruited according to the following inclusion criteria: 18—55 years old with a body mass index (BMI) of 18–30 kg/m^2. Study participants were identified as healthy based on laboratory testing and physical examinations. The participants received 3 capsules containing A. paniculata extract (calculated as 60 mg of andrographolide/dose) before breakfast with 240 mL of drinking water. Blood samples, in EDTA tubes, were taken after oral administration at 0, 10, 20, 30, 45 min, and 1, 1.5, 2, 4, 6, 8, 10, 12, 24 h post dose. All blood samples were then centrifuged at 4000 ± 100 rpm, 4 °C for 5 min. Plasma was pipetted and stored in cryotubes at − 80 °C until further analysis. Urine samples were collected during 0–4, 4–8, 8–12, 12–24, 24–32, 32–40 and 40–48 h after dosing and were then kept at − 80 °C before sample extraction.
Pharmacokinetic parameters were determined by non-compartmental analysis using PK solutions software, version 2.0 (Summit Research Services). The maximum concentration of four targeted compounds (Cmax) and the time to reach maximum concentration (Tmax) were taken directly from the individual plasma concentration versus time profiles. The area under the curve from time zero to the last sampling time (AUC0-t) was estimated using the linear trapezoidal rule. The apparent volume of distribution (Vd/F) and the elimination half-life (t1/2) were determined using non-compartmental analysis.
(§3) Finally, the hydrolysis of glucuronide metabolites in the pharmacokinetic study was performed according to the following process: 50 µL of plasma or urine sample was incubated for 30 min with 50 µL of 1000 U/mL β-glucuronidase in phosphate buffer pH 6.8 (composed of 0.1 M sodium phosphate monobasic and 0.1 M sodium phosphate dibasic) at 37 °C. For the hydrolysis of sulfatase, 50 µL of 100 units/mL of sulfatase in an acetate buffer at pH 5.0 (composed of 0.1 M acetic acid and 0.1 M sodium acetate) was added into 50 µL of sample; the mixture was then incubated at 37 °C for 2 h. The reaction was stopped in all hydrolysis samples with 150 µL of cold methanol, and then protein precipitation was performed prior to LC–MS/MS analysis. However, due to unavailable standard of the conjugated forms (AP-glucuronide and […]). The quantitative analysis of conjugated metabolites was determined after the hydrolysis reaction by enzymatic digestion, and the free form was analyzed without hydrolysis. The conjugated standards of AP-glucuronide or AP-sulfate should be synthesized for determining the exact amount of the glucuronide or sulfate.

[2] = Cumulative urine excretion after single oral administration of A. paniculata extract; type: in vivo, human
Experimental: as §1, §2, §3

[3] = Stability in urine under different storage conditions; type: physicochemical, human
Experimental: (§4) The stability of plasma and urine samples were evaluated at three different QC concentration levels (LQC, MQC and HQC, n = 3 for each level); the conditions were freeze–thaw stability, long-term stability, short-term stability, and post preparative stability in an autosampler. The evaluation of stability under freeze–thaw condition was carried out over five cycles of − 80 °C for at least 12 h of each cycle. Long-term stability was analyzed after storing the samples at − 80 °C. Short-term stability of each analyte, for up to 8 h during processing on the bench at room temperature, was also evaluated. For evaluation of post-preparative stability, the extracted samples were stored at ambient temperature (4 °C) in an autosampler for 24 h. The analyte was considered as a stable sample when the average percentage of accuracy of the QC sample was in the range of 85–115% and the %CV was not over 15%.

[4] = plasma
Experimental: as §4

[5] = Freeze–thaw stability 5 cycles, 2.50 ng/mL (LQC)
[6] = Freeze–thaw stability 5 cycles, 500.00 ng/mL (MQC)
[7] = Freeze–thaw stability 5 cycles, 900.00 ng/mL (HQC)
[8] = Long term stability 3 months at − 80 °C, 2.50 ng/mL (LQC)
[9] = Long term stability 3 months at − 80 °C, 500.00 ng/mL (MQC)
[10] = Long term stability 3 months at − 80 °C, 900.00 ng/mL (HQC)
[11] = Post preparative stability 24 h at autosampler, 2.50 ng/mL (LQC)
[12] = Post preparative stability 24 h at autosampler, 500.00 ng/mL (MQC)
[13] = Post preparative stability 24 h at autosampler, 900.00 ng/mL (HQC)
[14] = Short term stability 8 h at room temperature, 2.50 ng/mL (LQC)
[15] = Short term stability 8 h at room temperature, 500.00 ng/mL (MQC)
[16] = Short term stability 8 h at room temperature, 900.00 ng/mL (HQC)

Cmax [1]: 60.9 ± 26.5 ng/mL
AUC(0-t) [1]: 210 ± 21.1 ng·h/mL
Vd/F [1]: 4.58 ± 3.28 L/kg
Tmax [1]: 0.8 h
half-life [1]: 1.27 h
AUC of both conjugated metabolites compared to the respective parent compounds [1]: greater
Route of excretion [2]: primarily excreted renally
%Accuracy [3, 5]: 94.39%
Measured concentration [3, 5]: 2.36 ± 0.20 ng/mL
%Accuracy [3, 6]: 94.01%
Measured concentration [3, 6]: 470.05 ± 32.15 ng/mL
%Accuracy [3, 7]: 98.78%
Measured concentration [3, 7]: 889.00 ± 36.63 ng/mL
%Accuracy [3, 8]: 95.31%
Measured concentration [3, 8]: 2.38 ± 0.16 ng/mL
%Accuracy [3, 9]: 91.78%
Measured concentration [3, 9]: 458.89 ± 20.53 ng/mL
%Accuracy [3, 10]: 98.08%
Measured concentration [3, 10]: 882.74 ± 14.22 ng/mL
%Accuracy [3, 11]: 94.23%
Measured concentration [3, 11]: 2.36 ± 0.18 ng/mL
%Accuracy [3, 12]: 95.00%
Measured concentration [3, 12]: 474.97 ± 23.30 ng/mL
%Accuracy [3, 13]: 99.66%
Measured concentration [3, 13]: 896.96 ± 17.62 ng/mL
%Accuracy [3, 14]: 93.15%
Measured concentration [3, 14]: 2.33 ± 0.06 ng/mL
%Accuracy [3, 15]: 95.80%
Measured concentration [3, 15]: 479.00 ± 32.64 ng/mL
%Accuracy [3, 16]: 101.88%
Measured concentration [3, 16]: 916.95 ± 32.00 ng/mL
%Accuracy [4, 5]: 97.99%
Measured concentration [4, 5]: 2.45 ± 0.06 ng/mL
%Accuracy [4, 6]: 93.01%
Measured concentration [4, 6]: 465.07 ± 25.39 ng/mL
%Accuracy [4, 7]: 95.28%
Measured concentration [4, 7]: 857.48 ± 19.46 ng/mL
%Accuracy [4, 8]: 94.28%
Measured concentration [4, 8]: 2.36 ± 0.06 ng/mL
%Accuracy [4, 9]: 91.77%
Measured concentration [4, 9]: 458.87 ± 8.67 ng/mL
%Accuracy [4, 10]: 99.25%
Measured concentration [4, 10]: 893.21 ± 22.77 ng/mL
%Accuracy [4, 11]: 93.81%
Measured concentration [4, 11]: 2.35 ± 0.18 ng/mL
%Accuracy [4, 12]: 92.60%
Measured concentration [4, 12]: 463.01 ± 10.97 ng/mL
%Accuracy [4, 13]: 99.52%
Measured concentration [4, 13]: 895.66 ± 31.23 ng/mL
%Accuracy [4, 14]: 93.65%
Measured concentration [4, 14]: 2.34 ± 0.15 ng/mL
%Accuracy [4, 15]: 89.06%
Measured concentration [4, 15]: 445.29 ± 9.56 ng/mL
%Accuracy [4, 16]: 98.76%
Measured concentration [4, 16]: 888.87 ± 23.16 ng/mL
SMILES: C=C1CC[C@@H]2[C@](C)(CO)[C@H](O)CC[C@@]2(C)[C@@H]1C/C=C1/C(=O)OC[C@H]1O [AP1, andrographolide]

Cmax [1]: 83.8 ± 22.2 ng/mL
AUC(0-t) [1]: 309 ± 59 ng·h/mL
Vd/F [1]: 0.73 ± 0.1 L/kg
Tmax [1]: 1.5 h
half-life [1]: 1.38 h
AUC of both conjugated metabolites compared to the respective parent compounds [1]: greater
Route of excretion [2]: primarily excreted renally
%Accuracy [3, 5]: 93.92%
Measured concentration [3, 5]: 2.35 ± 0.10 ng/mL
%Accuracy [3, 6]: 91.91%
Measured concentration [3, 6]: 459.54 ± 15.54 ng/mL
%Accuracy [3, 7]: 100.19%
Measured concentration [3, 7]: 901.72 ± 35.81 ng/mL
%Accuracy [3, 8]: 94.28%
Measured concentration [3, 8]: 2.36 ± 0.06 ng/mL
%Accuracy [3, 9]: 90.36%
Measured concentration [3, 9]: 451.82 ± 15.00 ng/mL
%Accuracy [3, 10]: 98.18%
Measured concentration [3, 10]: 883.61 ± 32.83 ng/mL
%Accuracy [3, 11]: 93.61%
Measured concentration [3, 11]: 2.34 ± 0.11 ng/mL
%Accuracy [3, 12]: 90.33%
Measured concentration [3, 12]: 451.66 ± 9.81 ng/mL
%Accuracy [3, 13]: 100.28%
Measured concentration [3, 13]: 902.47 ± 52.60 ng/mL
%Accuracy [3, 14]: 94.35%
Measured concentration [3, 14]: 2.36 ± 0.07 ng/mL
%Accuracy [3, 15]: 90.63%
Measured concentration [3, 15]: 453.16 ± 19.26 ng/mL
%Accuracy [3, 16]: 101.88%
Measured concentration [3, 16]: 916.89 ± 26.49 ng/mL
%Accuracy [4, 5]: 102.35%
Measured concentration [4, 5]: 2.56 ± 0.21 ng/mL
%Accuracy [4, 6]: 93.25%
Measured concentration [4, 6]: 466.24 ± 38.67 ng/mL
%Accuracy [4, 7]: 98.75%
Measured concentration [4, 7]: 888.74 ± 16.64 ng/mL
%Accuracy [4, 8]: 87.13%
Measured concentration [4, 8]: 2.18 ± 0.05 ng/mL
%Accuracy [4, 9]: 94.32%
Measured concentration [4, 9]: 471.59 ± 4.35 ng/mL
%Accuracy [4, 10]: 98.11%
Measured concentration [4, 10]: 883.01 ± 16.08 ng/mL
%Accuracy [4, 11]: 97.41%
Measured concentration [4, 11]: 2.44 ± 0.04 ng/mL
%Accuracy [4, 12]: 94.34%
Measured concentration [4, 12]: 471.70 ± 15.57 ng/mL
%Accuracy [4, 13]: 100.12%
Measured concentration [4, 13]: 901.09 ± 11.50 ng/mL
%Accuracy [4, 14]: 97.61%
Measured concentration [4, 14]: 2.44 ± 0.04 ng/mL
%Accuracy [4, 15]: 94.40%
Measured concentration [4, 15]: 472.00 ± 19.37 ng/mL
%Accuracy [4, 16]: 98.65%
Measured concentration [4, 16]: 887.83 ± 21.04 ng/mL
SMILES: C=C1CC[C@@H]2[C@](C)(CO)[C@H](O)CC[C@@]2(C)[C@@H]1/C=C/C1=CCOC1=O [AP3, 14-deoxy-11, 12-didehydroandrographolide]
